SMILES strings stand for the structures.

Data set [1] deals with immunoproteasome subunit LMP2 (Homo sapiens, UniProt P28065+P40306). Briefly: Cell-free proteasome subunit peptide cleavage assay, LMP2. It counts as biochemical.
Data set [2] concerns primary human cells. Briefly: BioMAP Diversity PLUS Panel for Broad Phenotypic Profiling. It is filed as cell-based.
Data set [3] concerns the target constitutive proteasome subunit β1 (Homo sapiens, UniProt P28072+Q99436). Briefly: Cell-free proteasome subunit peptide cleavage assay, β1. It is filed as biochemical.
Data set [4] has as its target constitutive proteasome subunit β2 (Homo sapiens, UniProt P49720+Q99436). Briefly: Cell-free proteasome subunit peptide cleavage assay, β2. It is filed as biochemical.
The target of data set [5] is immunoproteasome subunit MECL-1 (Homo sapiens, UniProt P40306+P49720). Briefly: Cell-free proteasome subunit peptide cleavage assay, MECL-1. It counts as biochemical.
The target in data set [6] is mouse LMP7 (Mus musculus, UniProt O09061+P28063). Briefly: Cellular LMP7 activity in mouse P3X63Ag8.653 cells. It is filed as cell-based.

As to `CC(C)C[C@H](NC(=O)CNC(=O)c1cc(Cl)ccc1Cl)B(O)O` [Ixazomib], the IC50 in data set [1] is 0.9 ± 0.2 nM; in data set [3], 28 ± 22 nM; in data set [4], greater than 30000 nM; in data set [5] it was 5470 nM. Also, the “cytotoxicity toward primary human B cells, PBMCs, mononuclear cells, and venular endothelial cells” value in data set [2] (33 nmol/L) is reported as “cytotoxic”. The “proliferation of primary human coronary artery smooth muscle cells, endothelial cells, fibroblasts, and T cells” value in data set [2] (non-cytotoxic concentration of 11 nmol/L) is on record as “reduced proliferation”.
As to `CC(C)C[C@H](NC(=O)[C@H](Cc1ccccc1)NC(=O)c1cnccn1)B(O)O` [Bortezomib], in data set [6], it took 5.3 nM to reach half-maximal inhibition (IC50).

In general, IC50 refers to the point on the concentration scale where inhibition reaches its midpoint. Low values mean greater potency, high ones weaker potency.
